Consider 29 molecules from patent publication US20230000842A1, “METHODS OF TREATING CARTILAGE DISORDERS THROUGH INHIBITION OF CLK AND DYRK” (SAMUMED, LLC, priority 2019, published 2023).

In assay [1] the test system is MMP-3 levels in supernatant of chondrocytes stimulated with IL1-β. The assay can be described thus: Chondrocyte protection assay compound screening (MMP-3 LANCE Ultra). The assay is classed as cell-based, human. Conditions: IL1-β 10 ng/mL overnight, 11-point curves from 3 μM to 0.05 nM; for Emax: read-out: Maximum % Inhibition. How it is done: Human Chondrocyte Cell Culture: Primary human chondrocytes were purchased from Lonza (Walkersville, Md.) and expanded in Chondrocyte Growth Media (CGM, Lonza). Cells between passage 2 and 5 were used for the experiments.
Chondrocytes were plated at 8,000 cells/well in 40 μL/well Chondrocyte Differentiation Medium (Lonza; 500 mL Basal Medium, 25 mL FBS, 0.5 mL GA-1000, 1 mL R3-IGF, 2.5 mL bFGF, 0.5 mL Transferrin, and 1 mL Insulin). After 2 hours of incubation at 37° C. and 5% CO2, IL1-β (Peprotech, Rocky Hill, N.J.) was added to a final concentration of 10 ng/mL. 11 wells in 1 row were left unstimulated for normalization and calculating EC50 values. Cells were incubated at 37° C. and 5% CO2 overnight. Assay plates are spun, 25 μl of supernatant media was collected using (S2 pipettor, Apricot Designs). Cells were lysed using 10 μL of (Cell Titer-Glo, Promega). Luminescent signal detected using an En Vision Multilabel reader (Perkin Elmer). MMP-3 levels were measured in supernatant. Supernatant diluted 1:7 in DMEM. MMP-3 levels in the supernatant were measured using MMP-3 LANCE Ultra detection kit (Perkin Elmer). Briefly, 5 μL of diluted supernatant was transferred to low-volume 384 well plates using (S2 pipettor, Apricot Designs). A standard curve was prepared using MMP-3 analyte (range […]). 1.7 μL of 8× mix of Eu-labelled anti-MMP-3 antibody and ULight labelled anti-MMP-3 antibody was added to the plates using Mantis Liquid handler (Formulatrix). Plates were incubated overnight at room temperature. LANCE signal was detected using an EnVision Multilabel reader (Perkin Elmer), equipped with TR-FRET using excitation wavelength of 320 nm and two emission wavelengths of 615 nm and 665 nm. Data was analyzed according to the kit protocol, using the ratio of […] and the standard curve values were used to calculate the amount of MMP3 in the […] (in pg/ml). The normalized averages (fold change over IL1-β stimulated) for each compound concentration were calculated. EC50 and maximum % inhibition values were calculated using the dose-response nonlinear regression curve-fit in Dotmatics.

The target in another assay is CLK3 kinase (Homo sapiens, UniProt P49761). The assay can be described thus: CLK3 kinase activity assay (Z-lyte FRET).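 Note: kinase activity read as coumarin/fluorescein emission ratio by FRET, unphosphorylated peptide as 0% and phosphorylated peptide as 100% control, values from non-linear regression of dose-response curves.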 The assay is classed as biochemical. Conditions: Z-lyte Ser/Thr 18 peptide, 156 μM ATP, 1 h at room temperature.
The next assay addresses CLK2 kinase (Homo sapiens, UniProt P49760). The assay can be described thus: CLK2 kinase activity assay (Z-lyte FRET).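 Note: FRET read-out as coumarin to fluorescein emission ratio, unphosphorylated peptide as 0% and phosphorylated peptide as 100% controls, duplicate reactions, non-linear regression fit of dose-response curves.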 Type of assay: biochemical. Conditions: Z-lyte Ser/Thr 6 peptide, 60 μM ATP, 1 h at room temperature.
For assay [2], the system named is primary human mesenchymal stem cells (hMSCs). Nature of the assay: Chondrogenesis screening using primary human mesenchymal stem cells. Conditions: Homo sapiens, Mesenchymal stem cells, hMSC chondrogenesis; for Emax: maximum activity relative to TGF-β3 (10 ng/mL) positive control, read-out: Max. Activity as % TGF-β3 activity. Type of assay: cell-based. An outline of the steps:
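Primary hMSCs at passage 3–6 were treated across compound concentrations, with TGF-β3 as positive control. Chondrogenic nodule area per well was normalized to 3 DMSO wells on the same plate (fold over DMSO, 2–3 replicates). EC50, maximum activity and the dose reaching it were derived.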

Assay [3] has as its system Wnt pathway activity (SW480 colon carcinoma cells stably expressing the Sp5-Luc reporter). Nature of the assay: Wnt pathway activity screening assay (Sp5-Luc reporter gene assay). Conditions: Homo sapiens, SW480, Table 4; SW480 cells stably expressing Sp5-Luc reporter, 10-point dose-response from 10 μM, 36 to 48 hours.

SMILES strings stand for the structures.

Sequence of CLK3 kinase (P49761 whole entry): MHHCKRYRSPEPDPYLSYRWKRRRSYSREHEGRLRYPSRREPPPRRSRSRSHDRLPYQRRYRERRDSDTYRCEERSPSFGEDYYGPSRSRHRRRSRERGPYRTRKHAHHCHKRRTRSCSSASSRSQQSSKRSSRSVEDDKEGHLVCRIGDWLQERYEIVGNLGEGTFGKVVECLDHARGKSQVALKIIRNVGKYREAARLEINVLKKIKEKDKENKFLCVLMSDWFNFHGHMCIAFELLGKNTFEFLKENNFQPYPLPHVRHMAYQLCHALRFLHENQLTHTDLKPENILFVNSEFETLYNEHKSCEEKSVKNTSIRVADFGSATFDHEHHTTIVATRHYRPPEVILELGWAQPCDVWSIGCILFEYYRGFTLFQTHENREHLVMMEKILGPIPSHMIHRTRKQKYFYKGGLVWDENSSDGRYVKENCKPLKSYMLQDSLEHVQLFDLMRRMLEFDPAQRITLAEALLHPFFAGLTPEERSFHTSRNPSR
Sequence of CLK2 kinase (P49760 whole entry): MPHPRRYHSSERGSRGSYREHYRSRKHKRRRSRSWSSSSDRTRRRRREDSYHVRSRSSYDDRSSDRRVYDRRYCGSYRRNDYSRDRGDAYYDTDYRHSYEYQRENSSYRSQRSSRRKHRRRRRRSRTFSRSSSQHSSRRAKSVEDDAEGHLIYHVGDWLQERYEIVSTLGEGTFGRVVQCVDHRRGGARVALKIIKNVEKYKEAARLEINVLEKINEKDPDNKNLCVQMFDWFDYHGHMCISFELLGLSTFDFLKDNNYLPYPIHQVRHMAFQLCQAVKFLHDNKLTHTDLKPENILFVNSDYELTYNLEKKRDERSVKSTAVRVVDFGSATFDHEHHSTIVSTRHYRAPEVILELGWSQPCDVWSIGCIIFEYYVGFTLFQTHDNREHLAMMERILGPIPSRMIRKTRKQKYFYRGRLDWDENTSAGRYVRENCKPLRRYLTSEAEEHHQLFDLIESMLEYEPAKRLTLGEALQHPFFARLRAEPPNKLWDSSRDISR

Regarding `CN1CCN(c2cc(C(=O)Nc3cc4cc(-c5cnn(C)c5)c(F)cc4cn3)ccn2)CC1` [compound 546], the EC50 in assay [1] (Homo sapiens, Chondrocyte) was found to be 0.4 nM; on CLK3 kinase, 21 nM; on CLK2 kinase, 2 nM. In addition, the Emax in assay [1] (Homo sapiens, Chondrocyte) is 97.3%.
On the same counts, the results for `CN1CCN(c2cc(C(=O)Nc3cc4c(Cl)c(-c5cnn(C)c5)ccc4cn3)ccn2)CC1` [compound 547] are 898 nM, 43 nM, 3 nM and 52.1%.
As to `CN1CCC2(CC1)CN(c1cc(C(=O)Nc3cc4cc(-c5cnn(C)c5CO)ccc4cn3)ccn1)C2` [compound 568], the EC50 was ≥ 3000 nM in assay [1] (Homo sapiens, Chondrocyte); 44 nM on CLK3 kinase; 3 nM on CLK2 kinase. Also, the Emax in assay [1] (Homo sapiens, Chondrocyte) worked out at 42.7%.
For `O=C(Nc1cc2cc(-c3cncs3)ccc2cn1)c1ccc2c(c1)CNCC2` [compound 592] the same measures were ≥ 3000 nM, 43 nM, 2 nM and 29.7%.
Turning to `Cn1ncc(-c2ccc3cnc(NC(=O)c4ccnc(N5CCOCC5)c4)cc3c2)c1CN1CCOCC1` [compound 573], the EC50 in assay [1] (Homo sapiens, Chondrocyte) was ≥ 3000 nM; at CLK3 kinase, 8 nM; at CLK2 kinase, 2 nM. For the same molecule, in assay [1] (Homo sapiens, Chondrocyte), the Emax is 70%.
In the case of `Cc1nnc(-c2ccc3cnc(NC(=O)c4ccnc(N(C)C5CCN(C)CC5)c4)cc3c2)s1` [compound 595], the EC50 in assay [1] (Homo sapiens, Chondrocyte) was determined as 2.7 nM; on CLK3 kinase, 19 nM. In addition, the Emax in assay [1] (Homo sapiens, Chondrocyte) worked out at 86.2%; in assay [2] it was 25.7%.
Turning to `CN1CCC2(CC1)CN(c1cc(C(=O)Nc3cc4cc(-c5cnn(C)c5)ccc4cn3)ccn1)C2` [compound 554], the EC50 in assay [1] (Homo sapiens, Chondrocyte) is ≥ 3000 nM; on CLK3 kinase, 16 nM; at CLK2 kinase, 1 nM. Also, in assay [1] (Homo sapiens, Chondrocyte), the Emax stood at 53.7%.
Regarding `CN(C)CCNc1cc(C(=O)Nc2cc3cc(-c4cnn(C)c4)ccc3cn2)ccn1` [compound 543], the EC50 in assay [1] (Homo sapiens, Chondrocyte) worked out at 306 nM; on CLK3 kinase, 60 nM; on CLK2 kinase it was 3 nM. Besides, the Emax in assay [1] (Homo sapiens, Chondrocyte) was found to be 81.8%.
`CN1CCN(c2ccc(C(=O)Nc3cc4cc(-c5cnn(C)c5)ccc4cn3)cn2)CC1` [compound 542]: the EC50 is 9.5 nM in assay [1] and 36 nM at CLK3 kinase. Besides, the “Maximum % Inhibition” value in assay [1] is on record as 47.6%.
As to `CN1CCc2cc(C(=O)Nc3cc4cc(-c5cn(C)nn5)ccc4cn3)ccc2C1` [compound 578], in assay [1] (Homo sapiens, Chondrocyte), the EC50 is ≥ 3000 nM and the Emax is 37.6%. The molecule also registered an EC50 at CLK3 kinase of 48 nM.
As for `CN1CCN(c2ccc(C(=O)N3CCN(c4cc(C(=O)Nc5cc6cc(-c7cnn(C)c7)ccc6cn5)ccn4)CC3)cn2)CC1` [compound 553], the EC50 in assay [1] (Homo sapiens, Chondrocyte) was found to be 304 nM; at CLK3 kinase, 280 nM; at CLK2 kinase, 2 nM. The Emax in assay [1] (Homo sapiens, Chondrocyte) was found to be 52.3%.
`Cn1cc(-c2ccc3cnc(NC(=O)c4ccc5c(c4)CNCC5)cc3c2)cn1` [compound 557]: the EC50 in assay [1] (Homo sapiens, Chondrocyte) was determined as 1630 nM; on CLK3 kinase, 39 nM; at CLK2 kinase it was 2 nM. The Emax in assay [1] (Homo sapiens, Chondrocyte) worked out at 50.5%.
Consider `Cn1cc(-c2ccc3cnc(NC(=O)c4ccc5c(c4)ncn5C)cc3c2)cn1` [compound 558], for which the EC50 in assay [1] (Homo sapiens, Chondrocyte) is ≥ 3000 nM; on CLK3 kinase it was 49 nM; on CLK2 kinase, 3 nM. The Emax in assay [1] (Homo sapiens, Chondrocyte) was found to be 46.9%.
`CN(C)C1CCN(c2cc(C(=O)Nc3cc4cc(-c5cnn(C)c5)ccc4cn3)ccn2)CC1` [compound 552]: the EC50 in assay [1] (Homo sapiens, Chondrocyte) is 697 nM; at CLK3 kinase, 9 nM. Further, the Emax in assay [1] (Homo sapiens, Chondrocyte) was 83.2%.
`Fc1ccc(-c2cccc3[nH]c(-c4n[nH]c5ccc(-c6cncnc6)nc45)nc23)cc1` [compound 628]: the EC50 was ≥ 3000 nM in assay [1] (Homo sapiens, Chondrocyte); > 10000 nM in assay [3]; 5 nM on CLK2 kinase. Further, in assay [1] (Homo sapiens, Chondrocyte), the Emax amounted to 54.3%.
On to `O=C(Nc1cncc(-c2ccc3[nH]nc(-c4nc5c(-c6cccc(F)c6)cccc5[nH]4)c3n2)c1)C1CC1` [compound 629], for which the EC50 in assay [1] (Homo sapiens, Chondrocyte) stood at 0.2 nM; in assay [3] it was 1080 nM; on CLK2 kinase, 9 nM. For the same molecule, the Emax in assay [1] (Homo sapiens, Chondrocyte) was found to be 70%.
For `CN1CCN(c2ccc(C(=O)Nc3cc4cc(-c5cnn(C)c5)ccc4cn3)cn2)CC1` [compound 551], in assay [1], the EC50 stood at 1060 nM and the “Maximum % Inhibition” value is 100.0%. For the same molecule, the EC50 at CLK3 kinase was 78 nM.
Turning to `O=C(Nc1c[nH]nc1C(=O)Nc1cncc(-c2cccc(F)c2)c1)c1cncc(F)c1` [compound 2], the EC50 in assay [1] (Homo sapiens, Chondrocyte) amounted to 0.4 nM; in assay [3], 479 nM; at CLK2 kinase, 72 nM. The Emax in assay [1] (Homo sapiens, Chondrocyte) is 58.2%; in assay [2], 81.5%.
As to `CN1CCCN(c2cc(C(=O)Nc3cc4cc(-c5cnn(C)c5)ccc4cn3)ccn2)CC1` [compound 550], in assay [1] (Homo sapiens, Chondrocyte), the EC50 was ≥ 3000 nM and the Emax was determined as 66.9%. At CLK3 kinase, this molecule returned an EC50 of 28 nM.
Turning to `COc1cncc(C(=O)Nc2c[nH]nc2C(=O)Nc2ccc(N3CCC(F)(F)C3)nc2)c1` [compound 6], the EC50 was 2.2 nM in assay [1] (Homo sapiens, Chondrocyte); 5.7 nM in assay [3]; 15 nM at CLK2 kinase; 300 nM in assay [2] (concentration required to induce 50% levels of chondrogenesis with TGF-β3 as positive control, read-out: Conc (nM) of 50% TGF-β3 activity). Moreover, the Emax in assay [1] (Homo sapiens, Chondrocyte) was 42.1%; in assay [2] it was 124%.
Regarding `CN1CCN(c2cc(C(=O)Nc3cc4cc(-c5cncs5)ccc4cn3)ccn2)CC1` [compound 591], the EC50 in assay [1] (Homo sapiens, Chondrocyte) was determined as 423 nM; at CLK3 kinase, 20 nM. The Emax was 100% in assay [1] (Homo sapiens, Chondrocyte) and 22.3% in assay [2].
In the case of `O=C(Nc1cccnc1)Nc1c[nH]nc1C(=O)Nc1ccc(C(F)(F)F)nc1` [compound 16], the EC50 was 8.7 nM in assay [1] (Homo sapiens, Chondrocyte); 679 nM in assay [3]; 95 nM at CLK2 kinase. For the same molecule, in assay [1] (Homo sapiens, Chondrocyte), the Emax turned out to be 99.5%.
For the molecule `CN1CCN(c2cc(C(=O)Nc3cc4cc(-c5cnn(C)c5N)ccc4cn3)ccn2)CC1` [compound 566], in assay [1] (Homo sapiens, Chondrocyte), the EC50 is 11.5 nM and the Emax came to 43.8%. The EC50 at CLK3 kinase was determined as 34 nM.
Take `O=C(Nc1cccnc1)c1n[nH]cc1C#Cc1cncc(OC2CCNCC2)c1` [compound 32]: the EC50 in assay [1] (Homo sapiens, Chondrocyte) was 0.2 nM; in assay [3], 1270 nM; at CLK2 kinase, 38 nM. Also, the Emax in assay [1] (Homo sapiens, Chondrocyte) was 77.8%.
For `COc1cccc(-c2cncc3[nH]c(-c4n[nH]c5ccc(-c6cncc(NC(=O)C7CCCCC7)c6)nc45)nc23)c1` [compound 627] the same measures were ≥ 3000 nM, > 10000 nM, 7 nM and 90.7%.
For `CN(C)CCNc1cc(F)cc(-c2cccc3[nH]c(-c4n[nH]c5ncc(-c6ccncc6)cc45)cc23)c1` [compound 635], the EC50 in assay [1] (Homo sapiens, Chondrocyte) stood at 4 nM; in assay [3] it was 6070 nM; on CLK2 kinase, 10 nM. The Emax in assay [1] (Homo sapiens, Chondrocyte) amounted to 78.5%.
On the same counts, the results for `CC(F)(F)CN1CCC(C(=O)Nc2cc3cc(-c4cnco4)cnc3cn2)CC1` [compound 642] are ≥ 3000 nM, > 10000 nM, 9780 nM and 29.5%.
On the same counts, the results for `O=C(Nc1cc2cc(-c3cncs3)ccc2cn1)C1(F)CCCCC1` [compound 637] are ≥ 3000 nM, > 10000 nM, 1900 nM and 39.1%.
On the same counts, the results for `O=C(Nc1cncc(-c2ccc3[nH]nc(-c4nc5c(-c6ccccn6)ccnc5[nH]4)c3n2)c1)c1ccccc1` [compound 630] are 5.1 nM, > 10000 nM, 8 nM and 67%.
